Laboratory results published in US20250346569A1, “NEW DERIVATIVES FOR TREATING TRPM3 MEDIATED DISORDERS” (Katholieke Universiteit Leuven, priority 2022, published 2025).

These compounds were tested against T1, mouse TRPM3α2 (mTRPM3) ion channel (Mus musculus, UniProt J9SQF3) (assay: Monitoring the TRPM3 ion channel driven Ca2+ uptake (Fluo-4 AM assay)). Details: TRPM3 overexpressing flip-in HEK293 cells, channel stimulated with Pregnenolone sulfate (PS) 50 μM.
T1 construct: expressed in transfected cells; host or cells: flip-in HEK293
Assay type: cell-based
Method in brief: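 Flp-In HEK293 cells overexpressing mTRPM3α2, loaded with Fluo-4 AM and added to wells holding compound plus 50 μM pregnenolone sulfate in Ca2+-containing Krebs buffer. Fluorescence (ex 485/em 535) read right after cell addition. Inhibition normalised to vehicle and positive-control inhibitor; IC50 derived.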

T1 sequence (J9SQF3 1-1709 isoform J9SQF3-12): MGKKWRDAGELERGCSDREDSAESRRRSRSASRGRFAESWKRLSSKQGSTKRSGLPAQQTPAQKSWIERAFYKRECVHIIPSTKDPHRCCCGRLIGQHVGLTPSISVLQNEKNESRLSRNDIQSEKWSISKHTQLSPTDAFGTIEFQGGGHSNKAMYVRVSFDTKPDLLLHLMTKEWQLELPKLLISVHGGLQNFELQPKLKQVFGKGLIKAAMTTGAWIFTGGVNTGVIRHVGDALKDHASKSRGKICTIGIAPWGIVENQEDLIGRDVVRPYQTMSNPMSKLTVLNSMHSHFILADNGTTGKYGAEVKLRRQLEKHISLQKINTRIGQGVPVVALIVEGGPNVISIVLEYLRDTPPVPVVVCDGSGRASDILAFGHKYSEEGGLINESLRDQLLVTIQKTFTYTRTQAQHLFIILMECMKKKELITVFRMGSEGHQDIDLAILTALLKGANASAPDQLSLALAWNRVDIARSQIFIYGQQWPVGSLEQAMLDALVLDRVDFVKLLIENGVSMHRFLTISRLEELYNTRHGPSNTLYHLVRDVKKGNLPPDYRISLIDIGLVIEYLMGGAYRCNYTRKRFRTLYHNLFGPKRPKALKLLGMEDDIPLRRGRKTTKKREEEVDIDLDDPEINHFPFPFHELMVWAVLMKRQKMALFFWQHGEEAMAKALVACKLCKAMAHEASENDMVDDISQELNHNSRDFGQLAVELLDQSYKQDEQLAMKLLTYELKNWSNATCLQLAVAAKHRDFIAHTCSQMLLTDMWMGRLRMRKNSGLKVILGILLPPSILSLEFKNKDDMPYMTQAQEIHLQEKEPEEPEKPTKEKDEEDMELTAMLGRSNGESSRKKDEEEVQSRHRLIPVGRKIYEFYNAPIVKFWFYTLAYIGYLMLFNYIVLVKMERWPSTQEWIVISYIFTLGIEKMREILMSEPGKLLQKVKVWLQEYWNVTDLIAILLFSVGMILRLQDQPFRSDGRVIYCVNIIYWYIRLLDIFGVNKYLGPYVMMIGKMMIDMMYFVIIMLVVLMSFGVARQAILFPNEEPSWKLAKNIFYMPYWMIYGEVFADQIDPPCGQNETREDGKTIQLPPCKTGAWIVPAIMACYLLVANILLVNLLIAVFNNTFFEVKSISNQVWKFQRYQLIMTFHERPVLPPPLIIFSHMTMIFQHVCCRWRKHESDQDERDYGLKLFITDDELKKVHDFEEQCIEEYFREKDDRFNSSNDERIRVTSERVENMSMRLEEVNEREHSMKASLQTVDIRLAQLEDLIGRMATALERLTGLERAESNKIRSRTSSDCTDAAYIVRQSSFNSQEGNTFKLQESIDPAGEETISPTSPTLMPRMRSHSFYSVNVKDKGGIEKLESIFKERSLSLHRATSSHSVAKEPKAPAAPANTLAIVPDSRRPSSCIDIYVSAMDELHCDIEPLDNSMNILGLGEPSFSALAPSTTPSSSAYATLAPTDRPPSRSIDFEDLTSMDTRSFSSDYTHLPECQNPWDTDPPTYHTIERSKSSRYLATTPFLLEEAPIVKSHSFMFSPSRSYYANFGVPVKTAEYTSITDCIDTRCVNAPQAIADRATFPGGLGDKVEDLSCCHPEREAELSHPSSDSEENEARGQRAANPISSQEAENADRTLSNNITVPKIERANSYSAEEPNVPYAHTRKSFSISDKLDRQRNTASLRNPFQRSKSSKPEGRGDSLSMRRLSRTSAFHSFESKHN

Compound | IC50 [µM]
Cc1ncsc1COc1ccc2sc(C)c(C(=O)NC3CCNCC3(F)F)c2c1 (single isomer, unassigned) [Cpd 042 - En2, N-(3,3-difluoropiperidin-4-yl)-2-methyl-5-[(4-methyl-1,3-thiazol-5-yl)methoxy]-1-benzothiophene-3-carboxamide] | < 1
Cc1ncc(COc2ccc3sc(C)c(C(=O)NC4(CO)CCC4)c3c2)s1 [Cpd 023, N-[1-(hydroxymethyl)cyclobutyl]-2-methyl-5-[(2-methyl-1,3-thiazol-5-yl)methoxy]-1-benzothiophene-3-carboxamide] | < 1
Cc1sc2ccc(OCc3ccccc3F)cc2c1C(=O)N[C@@H](CO)C(N)=O [Cpd 051, (2S)-2-({5-[(2-fluorophenyl)methoxy]-2-methyl-1-benzothiophen-3-yl}formamido)-3-hydroxypropanamide] | < 1
Cc1sc2ccc(OCc3cccnc3O)cc2c1C(=O)N[C@@H](C)C(N)=O [Cpd 010, (2S)-2-({5-[(2-hydroxypyridin-3-yl)methoxy]-2-methyl-1-benzothiophen-3-yl}formamido)propanamide] | < 1
Cc1ncsc1COc1ccc2sc(C)c(C(=O)NC3(C(N)=O)CCOCC3)c2c1 [Cpd 033, 4-{2-methyl-5-[(4-methyl-1,3-thiazol-5-yl)methoxy]-1-benzothiophene-3-amido}oxane-4-carboxamide] | < 1
Cc1sc2ccc(OCc3ccccc3F)cc2c1C(=O)N[C@@H](C)C(N)=O [Cpd 007, (2S)-2-({5-[(2-fluorophenyl)methoxy]-2-methyl-1-benzothiophen-3-yl}formamido)propanamide] | < 1
Cc1ncsc1COc1ccc2sc(C)c(C(=O)NCc3cccc(O)n3)c2c1 [Cpd 047, N-[(6-hydroxypyridin-2-yl)methyl]-2-methyl-5-[(4-methyl-1,3-thiazol-5-yl)methoxy]-1-benzothiophene-3-carboxamide] | < 1
Cc1sc2ccc(OCC3CCOCC3)cc2c1C(=O)NC(C)(CO)C(N)=O (single isomer, unassigned) [Cpd 067 - En1, 3-hydroxy-2-methyl-2-({2-methyl-5-[(oxan-4-yl)methoxy]-1-benzothiophen-3-yl}formamido)propanamide] | > 20

Now from value to compound:

IC50 [µM] | Compound
1 to 20 | Cn1ccc(NC(=O)c2c(C(F)F)sc3ccc(OCc4ccccc4)cc23)n1 [Cpd 131, 5-(benzyloxy)-2-(difluoromethyl)-N-(1-methyl-1H-pyrazol-3-yl)-1-benzothiophene-3-carboxamide]
1 to 20 | Cc1sc2ccc(OCc3cccnc3C(F)(F)F)cc2c1C(=O)NCC(C)(C)N1CCOCC1 [Cpd 099, 2-methyl-N-[2-methyl-2-(morpholin-4-yl)propyl]-5-{[2-(trifluoromethyl)pyridin-3-yl]methoxy}-1-benzothiophene-3-carboxamide]
< 1 | Cc1sc2ccc(OCc3cccnc3C(F)(F)F)cc2c1C(=O)NC1CCOC1 (centres unmarked) [Cpd 097, 2-methyl-N-(oxolan-3-yl)-5-{[2-(trifluoromethyl)pyridin-3-yl]methoxy}-1-benzothiophene-3-carboxamide]
< 1 | Cc1sc2ccc(OCc3ccccn3)cc2c1C(=O)NC1(C(N)=O)COC1 [Cpd 088, 3-{2-methyl-5-[(pyridin-2-yl)methoxy]-1-benzothiophene-3-amido}oxetane-3-carboxamide]
< 1 | CNC(=O)C(C)(CO)NC(=O)c1c(C)sc2ccc(OCc3cnc(C)s3)cc12 (single isomer, unassigned) [Cpd 132 - En1, 3-hydroxy-N,2-dimethyl-2-({2-methyl-5-[(2-methyl-1,3-thiazol-5-yl)methoxy]-1-benzothiophen-3-yl}formamido)propanamide]
> 20 | O=C(NCc1cccc(O)n1)c1c(C(F)F)sc2ccc(OCc3ccccc3)cc12 [Cpd 151, 5-(benzyloxy)-2-(difluoromethyl)-N-[(6-hydroxypyridin-2-yl)methyl]-1-benzothiophene-3-carboxamide]
